Data taken from ChEMBL document CHEMBL1201862, “PubChem BioAssay data set” (2004).
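These data come from cells grown in 96-well plates and exposed to compound for 48 hours at five concentrations. Abbreviation: GI50, concentration required for 50% inhibition of growth.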 Calls of active or inactive are those of the source. No stated cut-off is given here; in the data, active = GI50 up to about 1.1 µM and inactive = higher.

Assays:
Experiment in all cases: NCI-60 cell line screen, 48 h
[1] = system: SNB-75
[2] = system: 786-0
[3] = system: OVCAR-4
[4] = system: UACC-62
[5] = system: MDA-MB-231
[6] = system: UO-31
[7] = system: RXF 393
[8] = system: K562
[9] = system: SN12C
[10] = system: Hs-578T
[11] = system: SR
[12] = system: UACC-257
[13] = system: HCT-116
[14] = system: SNB-19
[15] = system: U-251
[16] = system: A549
[17] = system: OVCAR-8
[18] = system: LOX IMVI
[19] = system: PC-3
[20] = system: MCF7

SMILES | GI50 [1] | GI50 [2] | GI50 [3] | GI50 [4] | GI50 [5] | GI50 [6] | GI50 [7] | GI50 [8] | GI50 [9] | GI50 [10] | GI50 [11] | GI50 [12] | GI50 [13] | GI50 [14] | GI50 [15] | GI50 [16] | GI50 [17] | GI50 [18] | GI50 [19] | GI50 [20]
COc1cc(Nc2nc3c(N)cc(C(F)(F)F)cc3nc2-c2ccccc2)cc(OC)c1OC | 17 µM (inactive) | 24.3 µM (inactive) | 15 µM (inactive) | 43.1 µM (inactive) | > 42.5 µM (inactive) | > 100 µM (inactive) | 1.98 µM (inactive) | > 100 µM (inactive) | 43 µM (inactive) | 22.3 µM (inactive) | > 87.5 µM (inactive) | 63 µM (inactive) | > 74.3 µM (inactive) | 25.8 µM (inactive) | 26.1 µM (inactive) | 49.5 µM (inactive) | 24.5 µM (inactive) | 72.1 µM (inactive) | 37.2 µM (inactive) | 67.3 µM (inactive)
Cc1nc2ccccc2c(=O)n1-c1n[nH]c2ccccc12 | > 100 µM (inactive) | > 100 µM (inactive) | > 100 µM (inactive) | > 100 µM (inactive) | > 100 µM (inactive) | > 100 µM (inactive) | > 100 µM (inactive) | > 100 µM (inactive) | > 100 µM (inactive) | > 100 µM (inactive) | > 100 µM (inactive) | > 100 µM (inactive) | > 100 µM (inactive) | > 100 µM (inactive) | > 100 µM (inactive) | > 100 µM (inactive) | > 100 µM (inactive) | > 100 µM (inactive) | > 100 µM (inactive) | > 100 µM (inactive)
O=[N+]([O-])/C=C/COCc1cc2c(cc1Br)OCO2 | 17.4 µM (inactive) | 13.8 µM (inactive) | 18.6 µM (inactive) | 16.5 µM (inactive) | 18.9 µM (inactive) | 17.2 µM (inactive) | 16.7 µM (inactive) | 58.2 µM (inactive) | 18.6 µM (inactive) | 23.6 µM (inactive) | 23.4 µM (inactive) | 17.3 µM (inactive) | 17.6 µM (inactive) | – | 17 µM (inactive) | 21.7 µM (inactive) | 31.9 µM (inactive) | 33.8 µM (inactive) | 13 µM (inactive) | 17.2 µM (inactive)
C=CCOC1=C(OC(C)=O)C(=O)OC1C1COC(C)(C)O1 (stereo unspecified) | > 36.3 µM (inactive) | 32.1 µM (inactive) | 17.2 µM (inactive) | 57 µM (inactive) | 38.4 µM (inactive) | 28.1 µM (inactive) | 26.3 µM (inactive) | 23.6 µM (inactive) | > 42.8 µM (inactive) | 32.4 µM (inactive) | 5.58 µM (inactive) | 60.3 µM (inactive) | 26.2 µM (inactive) | > 74.3 µM (inactive) | 42.5 µM (inactive) | > 73.5 µM (inactive) | 28.6 µM (inactive) | 18.1 µM (inactive) | > 57.3 µM (inactive) | 28.2 µM (inactive)
O=[N+]([O-])c1ccc2sc(/C=N/c3ccccn3)cc2c1 | > 100 µM (inactive) | > 100 µM (inactive) | – | 99.1 µM (inactive) | 84.1 µM (inactive) | > 100 µM (inactive) | > 100 µM (inactive) | 26.8 µM (inactive) | 88.7 µM (inactive) | 47.6 µM (inactive) | 26.4 µM (inactive) | 99.8 µM (inactive) | 38.4 µM (inactive) | > 100 µM (inactive) | 33.7 µM (inactive) | > 100 µM (inactive) | 35.2 µM (inactive) | 31.9 µM (inactive) | 69.5 µM (inactive) | 30.4 µM (inactive)
Cc1nc2c(=O)n(-c3ccccc3)c(=O)n(-c3ccccc3)c2o1 | > 100 µM (inactive) | > 100 µM (inactive) | > 100 µM (inactive) | > 100 µM (inactive) | > 100 µM (inactive) | > 100 µM (inactive) | > 100 µM (inactive) | > 100 µM (inactive) | > 100 µM (inactive) | > 100 µM (inactive) | > 100 µM (inactive) | > 100 µM (inactive) | > 100 µM (inactive) | > 100 µM (inactive) | > 100 µM (inactive) | > 100 µM (inactive) | > 100 µM (inactive) | > 100 µM (inactive) | > 100 µM (inactive) | > 100 µM (inactive)
CC(NC1=CC(=O)c2cccnc2C1=O)C(O)c1ccccc1 (stereo unspecified) | 1.35 µM (inactive) | 2.79 µM (inactive) | 2.94 µM (inactive) | 1.65 µM (inactive) | 2.52 µM (inactive) | 2.15 µM (inactive) | 2.71 µM (inactive) | 2.23 µM (inactive) | 1.38 µM (inactive) | 2.53 µM (inactive) | 2.86 µM (inactive) | 1.23 µM (inactive) | 2.22 µM (inactive) | 2.08 µM (inactive) | 2.78 µM (inactive) | 1.9 µM (inactive) | 2.92 µM (inactive) | 0.942 µM (active) | 1.65 µM (inactive) | 1.35 µM (inactive)
c1ccc(-c2ccc(/N=N/N3CCCC3)cc2)cc1 | > 100 µM (inactive) | > 100 µM (inactive) | > 100 µM (inactive) | > 100 µM (inactive) | > 100 µM (inactive) | > 100 µM (inactive) | > 100 µM (inactive) | > 100 µM (inactive) | > 100 µM (inactive) | > 100 µM (inactive) | 7.11 µM (inactive) | > 100 µM (inactive) | > 100 µM (inactive) | > 100 µM (inactive) | > 100 µM (inactive) | – | > 100 µM (inactive) | > 100 µM (inactive) | > 100 µM (inactive) | > 100 µM (inactive)
NNC(=O)CC(=O)Nc1ccc(C(=O)O)cc1 | > 100 µM (inactive) | > 100 µM (inactive) | > 100 µM (inactive) | > 100 µM (inactive) | > 100 µM (inactive) | > 100 µM (inactive) | > 100 µM (inactive) | > 100 µM (inactive) | > 100 µM (inactive) | > 100 µM (inactive) | > 100 µM (inactive) | > 100 µM (inactive) | > 100 µM (inactive) | > 100 µM (inactive) | > 100 µM (inactive) | > 100 µM (inactive) | > 100 µM (inactive) | > 100 µM (inactive) | > 100 µM (inactive) | > 100 µM (inactive)
O=C1Nc2cccc(C(F)(F)F)c2/C1=N/Nc1ccccc1[N+](=O)[O-] | 25.6 µM (inactive) | 15.5 µM (inactive) | 16.9 µM (inactive) | 51.3 µM (inactive) | 28.4 µM (inactive) | 33.9 µM (inactive) | > 100 µM (inactive) | 17 µM (inactive) | 23.4 µM (inactive) | 27.3 µM (inactive) | 0.912 µM (active) | 10.3 µM (inactive) | 37.6 µM (inactive) | 51.5 µM (inactive) | 21 µM (inactive) | 48 µM (inactive) | 26.1 µM (inactive) | 17.1 µM (inactive) | 37.6 µM (inactive) | 14.4 µM (inactive)
COC(=O)c1c(O)ccc2c1c1c(n2CCc2ccccc2)C(=O)c2ccccc2C1 | 26.4 µM (inactive) | 17 µM (inactive) | 10.7 µM (inactive) | 14.4 µM (inactive) | 19.5 µM (inactive) | 20.7 µM (inactive) | 13.3 µM (inactive) | 37.6 µM (inactive) | 14.7 µM (inactive) | 29.7 µM (inactive) | 29.7 µM (inactive) | 18.5 µM (inactive) | 15.3 µM (inactive) | 24.8 µM (inactive) | 21.9 µM (inactive) | 23.5 µM (inactive) | 36.3 µM (inactive) | 30.1 µM (inactive) | 16.8 µM (inactive) | 14.2 µM (inactive)
Clc1ccc(C2=Cc3nc2c(-c2ccccc2)c2ccc([nH]2)c(-c2ccccc2)c2nc(c(-c4ccccc4)c4ccc([nH]4)c3-c3ccccc3)C=C2)cc1 | 32.9 µM (inactive) | > 62.5 µM (inactive) | > 62.5 µM (inactive) | > 62.5 µM (inactive) | > 62.5 µM (inactive) | > 62.5 µM (inactive) | > 62.5 µM (inactive) | > 62.5 µM (inactive) | > 62.5 µM (inactive) | > 62.5 µM (inactive) | > 62.5 µM (inactive) | > 62.5 µM (inactive) | > 62.5 µM (inactive) | 46 µM (inactive) | > 62.5 µM (inactive) | > 62.5 µM (inactive) | > 62.5 µM (inactive) | > 62.5 µM (inactive) | > 62.5 µM (inactive) | > 62.5 µM (inactive)
CC(=O)/N=C1/N(/C=C2\C(=O)Oc3ccccc3C2=O)C(=O)/C(=C/c2ccccc2Cl)N1C | 22.2 µM (inactive) | > 100 µM (inactive) | > 100 µM (inactive) | > 100 µM (inactive) | > 100 µM (inactive) | – | > 100 µM (inactive) | > 100 µM (inactive) | > 100 µM (inactive) | 4.29 µM (inactive) | 69.3 µM (inactive) | > 100 µM (inactive) | > 100 µM (inactive) | 95.3 µM (inactive) | > 100 µM (inactive) | > 100 µM (inactive) | > 100 µM (inactive) | > 100 µM (inactive) | > 100 µM (inactive) | > 100 µM (inactive)
COc1ccc(Cc2ccc3nc(O)cc(C)c3c2)cc1S(=O)(=O)O | > 100 µM (inactive) | > 100 µM (inactive) | > 100 µM (inactive) | > 100 µM (inactive) | > 100 µM (inactive) | > 100 µM (inactive) | > 100 µM (inactive) | > 100 µM (inactive) | > 100 µM (inactive) | > 100 µM (inactive) | > 100 µM (inactive) | > 100 µM (inactive) | > 100 µM (inactive) | > 100 µM (inactive) | > 100 µM (inactive) | > 100 µM (inactive) | > 100 µM (inactive) | > 100 µM (inactive) | > 100 µM (inactive) | > 100 µM (inactive)
